Experimental data: US7514582B2, “2′-substituted 1,1′-biphenyl-2-carboxamides, processes for their preparation, their use as medicaments, and pharmaceutical preparations comprising them” (Sanofi-Aventis Deutschland GmbH, priority 1999, dated 2009)

Molecular target: T1, Kv1.5 channels from humans (Homo sapiens, UniProt P22460)
T1 construct: expressed in transfected cells; host or cells: Xenopus laevis oocytes injected with in vitro synthesized RNA
Experiment: Kv1.5 currents in Xenopus oocytes, two-microelectrode voltage clamp
Format: cell-based
Conditions: not given
Description: Kv1.5 channels from humans were expressed in Xenopus oocytes. For this, oocytes from Xenopus laevis were first isolated and defolliculated. RNA encoding Kv1.5 synthesized in vitro was then injected into these oocytes. After Kv1.5 protein expression for 1-7days, Kv1.5 currents were measured on the oocytes using the two-microelectrode voltage clamp technique. The Kv1.5 channels were in this case as a rule activated using voltage jumps to 0 mV and 40 mV lasting 500 ms. The bath was rinsed with a solution of the following composition: NaCl 96 mM, KCl 2 mM, CaCl2 1.8 mM, MgCl2 1 mM, HEPES 5 mM (titrated with NaOH to pH 7.4). These experiments were carried out at room temperature. The following were employed for data acquisition and analysis: Genedamp amplifier (Axon Instruments, Foster City, USA) and MacLab D/A converter and software (AD Instruments, Castle Hill, Australia). The substances according to the invention were tested by adding them in different concentrations to the bath solution. The effects of the substances were calculated as the percentage inhibition of the Kv1.5 control current which was obtained when no substance was added to the solution. The data were then extrapolated using the Hill equation in order to determine the inhibitory concentration IC50 for the respective substances.

T1 sequence (P22460 whole entry): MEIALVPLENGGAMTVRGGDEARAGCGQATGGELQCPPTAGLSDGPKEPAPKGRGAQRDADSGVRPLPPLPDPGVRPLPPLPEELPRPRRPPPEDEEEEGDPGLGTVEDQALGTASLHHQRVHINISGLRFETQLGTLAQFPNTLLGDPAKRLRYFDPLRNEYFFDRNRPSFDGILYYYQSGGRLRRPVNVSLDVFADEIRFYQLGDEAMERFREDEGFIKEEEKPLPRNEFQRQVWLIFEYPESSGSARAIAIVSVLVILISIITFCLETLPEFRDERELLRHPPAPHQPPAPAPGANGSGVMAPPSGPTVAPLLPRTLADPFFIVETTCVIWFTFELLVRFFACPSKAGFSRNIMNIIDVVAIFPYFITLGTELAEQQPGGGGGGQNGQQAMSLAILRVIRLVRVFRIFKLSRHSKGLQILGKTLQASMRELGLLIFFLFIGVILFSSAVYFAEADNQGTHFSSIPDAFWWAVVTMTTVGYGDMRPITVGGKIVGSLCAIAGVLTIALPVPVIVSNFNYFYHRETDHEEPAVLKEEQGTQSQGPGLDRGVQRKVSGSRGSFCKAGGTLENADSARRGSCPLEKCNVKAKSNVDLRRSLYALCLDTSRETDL

| IC50 [µM] | SMILES |
| --- | --- |
| 4.4 | CN(Cc1ccccc1)C(=O)c1ccccc1-c1ccccc1CNC(=O)OCc1ccccc1 [6 a] |
| 1.8 | O=C(NCc1ccccc1-c1ccccc1C(=O)NC1CCCCC1)OCc1ccccc1 [6 b] |
| 2.5 | O=C(NCc1ccccc1-c1ccccc1C(=O)Nc1ccccc1)OCc1ccccc1 [6 c] |
| 3.1 | CN(CCc1ccccn1)C(=O)c1ccccc1-c1ccccc1CNC(=O)OCc1ccccc1 [6 d] |
| 3.6 | CCCCN(CCCC)C(=O)c1ccccc1-c1ccccc1CNC(=O)OCc1ccccc1 [6 e] |
| 3 | O=C(NCc1ccccc1-c1ccccc1C(=O)NCC(F)(F)F)OCc1ccccc1 [6 h] |
| ~6 | O=C(NCc1ccccc1-c1ccccc1C(=O)NCCc1cccc[n+]1[O-])OCc1ccccc1 [7 a] |
| 0.8 | O=C(NCc1ccccc1-c1ccccc1C(=O)NCCc1cccnc1)OCc1ccccc1 [8 aa] |
| 1.2 | O=C(NCc1ccccc1-c1ccccc1C(=O)NCCc1ccncc1)OCc1ccccc1 [8 ab] |
| 1.1 | CC(C)C[C@@H](NC(=O)c1ccccc1-c1ccccc1CNC(=O)OCc1ccccc1)C(N)=O [8 ac] |
| 0.9 | COC(=O)[C@H](Cc1ccccc1)NC(=O)c1ccccc1-c1ccccc1CNC(=O)OCc1ccccc1 [8 b] |
| 6.4 | CC(C)(C)OC(=O)NCc1ccccc1-c1ccccc1C(=O)NCc1ccccn1 [8 d] |
| 3.1 | CC(C)(C)OC(=O)NCc1ccccc1-c1ccccc1C(=O)Nc1ccc(F)cc1 [8 k] |
| 5.2 | CC(C)(C)OC(=O)NCc1ccccc1-c1ccccc1C(=O)N[C@@H](CO)Cc1ccccc1 [8 m] |
| 3.7 | COC(=O)C(Cc1ccccn1)NC(=O)c1ccccc1-c1ccccc1CNC(=O)OC(C)(C)C (stereo not drawn) [8 n] |
| 8.4 | CC(C)(C)OC(=O)NCc1ccccc1-c1ccccc1C(=O)NCCc1ccccn1 [8 o] |

| IC50 [µM] | SMILES |
| --- | --- |
| 1.4 | CC(C)C(NC(=O)c1ccccc1-c1ccccc1CNC(=O)OCc1ccccc1)C(N)=O (stereo not drawn) [8 p] |
| 7.3 | CCN(Cc1ccncc1)C(=O)c1ccccc1-c1ccccc1CNC(=O)OCc1ccccc1 [8 q] |
| 1 | COC(=O)C(CC(C)C)NC(=O)c1ccccc1-c1ccccc1CNC(=O)OCc1ccccc1 (stereo not drawn) [8 r] |
| 1 | O=C(NCc1ccccc1-c1ccccc1C(=O)NCCCC(F)(F)F)OCc1ccccc1 [8 s] |
| 3.3 | CN(C)c1ccc(CNC(=O)c2ccccc2-c2ccccc2CNC(=O)OCc2ccccc2)cc1 [8 x] |
| 2.8 | CC(C)NC(=O)CNC(=O)c1ccccc1-c1ccccc1CNC(=O)OCc1ccccc1 [8 y] |
| 1.6 | COC(=O)C(Cc1ccccn1)NC(=O)c1ccccc1-c1ccccc1CNC(=O)OCc1ccccc1 (stereo not drawn) [8 z] |
| 2 | O=C(NCCc1ccccn1)c1ccccc1-c1ccccc1CNC(=S)Nc1ccccc1 [9 c] |
| 2.2 | O=C(NCCc1ccccn1)c1ccccc1-c1ccccc1CNC(=S)NCc1ccccc1 [9 f] |
| 7.3 | O=C(NCc1ccccc1-c1ccccc1C(=O)NCCc1ccccn1)Nc1ccc(F)cc1F [11 b] |
| 7.8 | COCCNC(=O)c1ccccc1-c1ccccc1CNC(=O)Nc1ccc(Cl)cc1 [11 g] |
| 3.3 | O=C(NCc1ccccc1-c1ccccc1C(=O)NCCc1ccccn1)Nc1ccc(C(F)(F)F)cc1 [11 m] |
| 5.9 | O=C(NCc1ccccc1-c1ccccc1C(=O)NCc1ccccn1)Nc1ccc(F)cc1F [11 n] |
| 4.4 | O=C(NCc1ccccc1-c1ccccc1C(=O)NCCc1ccccn1)Nc1cccc(C(F)(F)F)c1 [11 o] |
| 7.3 | O=C(NCc1ccccc1-c1ccccc1C(=O)NCCOc1ccccc1)Nc1ccc(F)cc1F [11 p] |

Same assay, conditions: human Kv1.5 expressed in Xenopus laevis oocytes; voltage jumps to 0 mV and 40 mV, 500 ms; room temperature; inhibition of Kv1.5 control current, Hill equation

| IC50 [µM] | SMILES |
| --- | --- |
| 2.2 | O=C(NCc1ccccn1)c1ccccc1-c1ccccc1CNC(=S)NCCc1ccccc1 [9 g] |
| 2.3 | COc1ccc(NC(=O)NCc2ccccc2-c2ccccc2C(=O)NCCc2ccccn2)cc1 [11 a] |
| 3.3 | O=C(NCc1ccccc1-c1ccccc1C(=O)NCc1ccccn1)Nc1ccc(C(F)(F)F)cc1 [11 d] |
| 5.8 | COc1cc(CNC(=O)c2ccccc2-c2ccccc2CNC(=O)Nc2ccc(F)cc2F)cc(OC)c1OC [11 h] |
| 2.7 | O=C(NCc1ccccc1-c1ccccc1C(=O)NCCc1ccccn1)Nc1ccc(Cl)cc1 [11 l] |
